Source: the supplement of paper PMC8612539
≈ marks a conversion by molar mass, not a printed value.

Test system: Histophilus somni
Assay: minimum inhibitory concentration (MIC)
Procedure: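 Broth microdilution MIC (Sensititre BOPO7F bovine plate, CLSI methods) of 19 antimicrobials against field isolates of P. multocida, M. haemolytica, H. somni (deep nasopharyngeal swabs) and E. coli, Enterococcus spp. (rectal swabs) from weaned dairy heifers. Incubation 16-24 h at 35 C. MIC is the lowest concentration preventing visible growth. Values with <= or > lie at the tested range limits. Trimethoprim-sulfamethoxazole is given as the trimethoprim component of a 1:19 mixture.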

C=C[C@]1(C)C[C@@H](OC(=O)CSCCN(CC)CC)[C@]2(C)[C@H](C)CC[C@]3(CCC(=O)[C@H]32)[C@@H](C)[C@@H]1O [Tiamulin]
Conditions | minimum inhibitory concentration [µg/mL]
isolate (source animal id): 3 | 1 (≈ 2.03 µM)
isolate (source animal id): 4 | 1 (≈ 2.03 µM)
isolate (source animal id): 7 | 1 (≈ 2.03 µM)
isolate (source animal id): 14 | 2 (≈ 4.05 µM)
isolate (source animal id): 15 | 1 (≈ 2.03 µM)
isolate (source animal id): 17 | 1 (≈ 2.03 µM)
isolate (source animal id): 18 | 1 (≈ 2.03 µM)
isolate (source animal id): 20 | ≤ 0.5
isolate (source animal id): 23 | 1 (≈ 2.03 µM)
isolate (source animal id): 45 | 2 (≈ 4.05 µM)
isolate (source animal id): 53 | 2 (≈ 4.05 µM)
isolate (source animal id): 83 | 1 (≈ 2.03 µM)
isolate (source animal id): 88 | 1 (≈ 2.03 µM)
isolate (source animal id): 92 | 2 (≈ 4.05 µM)
isolate (source animal id): 93 | 1 (≈ 2.03 µM)
isolate (source animal id): 99 | 2 (≈ 4.05 µM)
isolate (source animal id): 100 | 2 (≈ 4.05 µM)
isolate (source animal id): 105 | 1 (≈ 2.03 µM)
isolate (source animal id): 107 | 2 (≈ 4.05 µM)
isolate (source animal id): 108 | 2 (≈ 4.05 µM)
isolate (source animal id): 109 | 2 (≈ 4.05 µM)
isolate (source animal id): 110 | 2 (≈ 4.05 µM)
isolate (source animal id): 117 | 1 (≈ 2.03 µM)
isolate (source animal id): 121 | 1 (≈ 2.03 µM)
isolate (source animal id): 123 | 1 (≈ 2.03 µM)
isolate (source animal id): 124 | 2 (≈ 4.05 µM)
isolate (source animal id): 127 | 1 (≈ 2.03 µM)
isolate (source animal id): 128 | 1 (≈ 2.03 µM)
isolate (source animal id): 130 | 1 (≈ 2.03 µM)
isolate (source animal id): 132 | 2 (≈ 4.05 µM)
isolate (source animal id): 135 | 1 (≈ 2.03 µM)
isolate (source animal id): 140 | 2 (≈ 4.05 µM)
isolate (source animal id): 141 | 2 (≈ 4.05 µM)
isolate (source animal id): 142 | 2 (≈ 4.05 µM)
isolate (source animal id): 144 | 2 (≈ 4.05 µM)
isolate (source animal id): 146 | 1 (≈ 2.03 µM)
isolate (source animal id): 147 | 2 (≈ 4.05 µM)
isolate (source animal id): 151 | 1 (≈ 2.03 µM)
isolate (source animal id): 153 | 2 (≈ 4.05 µM)
isolate (source animal id): 154 | 2 (≈ 4.05 µM)
isolate (source animal id): 156 | 2 (≈ 4.05 µM)
isolate (source animal id): 157 | 2 (≈ 4.05 µM)
isolate (source animal id): 176 | 4 (≈ 8.1 µM)
isolate (source animal id): 183 | 2 (≈ 4.05 µM)
isolate (source animal id): 186 | 2 (≈ 4.05 µM)
isolate (source animal id): 196 | 2 (≈ 4.05 µM)
isolate (source animal id): 198 | 1 (≈ 2.03 µM)
isolate (source animal id): 200 | 2 (≈ 4.05 µM)
isolate (source animal id): 206 | 1 (≈ 2.03 µM)
isolate (source animal id): 208 | 2 (≈ 4.05 µM)
isolate (source animal id): 210 | ≤ 0.5
isolate (source animal id): 212 | ≤ 0.5
isolate (source animal id): 215 | 2 (≈ 4.05 µM)
isolate (source animal id): 216 | 2 (≈ 4.05 µM)
isolate (source animal id): 218 | 2 (≈ 4.05 µM)
isolate (source animal id): 219 | 2 (≈ 4.05 µM)
isolate (source animal id): 224 | 2 (≈ 4.05 µM)
isolate (source animal id): 228 | 2 (≈ 4.05 µM)
isolate (source animal id): 230 | 2 (≈ 4.05 µM)
isolate (source animal id): 233 | 1 (≈ 2.03 µM)
isolate (source animal id): 238 | ≤ 0.5
isolate (source animal id): 239 | 2 (≈ 4.05 µM)
isolate (source animal id): 241 | 2 (≈ 4.05 µM)
isolate (source animal id): 242 | 2 (≈ 4.05 µM)
isolate (source animal id): 243 | 2 (≈ 4.05 µM)
isolate (source animal id): 245 | 2 (≈ 4.05 µM)
isolate (source animal id): 246 | 4 (≈ 8.1 µM)
isolate (source animal id): 247 | 2 (≈ 4.05 µM)
isolate (source animal id): 248 | 1 (≈ 2.03 µM)
isolate (source animal id): 250 | 2 (≈ 4.05 µM)
isolate (source animal id): 251 | 2 (≈ 4.05 µM)
isolate (source animal id): 252 | 4 (≈ 8.1 µM)
isolate (source animal id): 254 | 2 (≈ 4.05 µM)
isolate (source animal id): 258 | 2 (≈ 4.05 µM)
isolate (source animal id): 259 | 1 (≈ 2.03 µM)
isolate (source animal id): 262 | 1 (≈ 2.03 µM)
isolate (source animal id): 264 | ≤ 0.5
isolate (source animal id): 265 | 1 (≈ 2.03 µM)
isolate (source animal id): 266 | 1 (≈ 2.03 µM)
isolate (source animal id): 267 | 1 (≈ 2.03 µM)
isolate (source animal id): 269 | 1 (≈ 2.03 µM)
isolate (source animal id): 271 | 1 (≈ 2.03 µM)
isolate (source animal id): 272 | 1 (≈ 2.03 µM)
isolate (source animal id): 274 | 1 (≈ 2.03 µM)
isolate (source animal id): 276 | 1 (≈ 2.03 µM)
isolate (source animal id): 278 | 1 (≈ 2.03 µM)
isolate (source animal id): 280 | ≤ 0.5
isolate (source animal id): 281 | 2 (≈ 4.05 µM)
isolate (source animal id): 283 | 1 (≈ 2.03 µM)
isolate (source animal id): 288 | 1 (≈ 2.03 µM)
isolate (source animal id): 291 | 1 (≈ 2.03 µM)
isolate (source animal id): 292 | 1 (≈ 2.03 µM)
isolate (source animal id): 296 | ≤ 0.5
isolate (source animal id): 306 | 1 (≈ 2.03 µM)
isolate (source animal id): 336 | 1 (≈ 2.03 µM)
isolate (source animal id): 337 | 1 (≈ 2.03 µM)
isolate (source animal id): 341 | 1 (≈ 2.03 µM)
